Patent publication US10010525B2, “Methods of inducing anesthesia” (The Regents of the University of California, priority 2012, dated 2018)

What was measured:
[1] = aqueous phase; Tadpole; cited from earlier work
[2] = system: 3-transmembrane (TM3) and 4-transmembrane (TM4) receptors; conditions: grouped by calculated molar solubility in unbuffered water at 25° C.; cited from earlier work
[3] = Loss of righting reflex in mice (inhaled agent); type: in vivo; conditions: mice
Protocol: HFCP caused loss of righting reflex (a surrogate measure of unconsciousness) in 4 healthy ND4 mice at 1.0±0.2 (mean±SD) percent of 1 atmosphere. […] After 2 hours of anesthesia, mice were awake after about 1 minute of discontinuing HFCP administration. […] Despite a lack of NMDA receptor effects, 1,1,2,2,3,3,4-heptafluorocyclopentane is able to produce the desired pharmacologic endpoints of unconsciousness and immobility that appears similar to desirable effects produced by conventional agents.

SMILES: FC(F)(F)C(Cl)Br (centres unmarked) [Halothane]
- EC50 [1]: 230 µM
- ion channel modulation, TM3 versus TM4 receptors (FIG. 2) [2]: modulate both 3-transmembrane (TM3) and TM4 receptors

SMILES: CCOC(=O)c1cncn1[C@H](C)c1ccccc1 [Etomidate]
- EC50 [1]: 3 µM
- ion channel modulation, TM3 versus TM4 receptors (FIG. 2) [2]: modulate 4-transmembrane receptors (TM4) or neither receptor type

SMILES: FC(F)OC(F)(F)C(F)Cl (centres unmarked) [enflurane]
- ion channel modulation, TM3 versus TM4 receptors (FIG. 2) [2]: modulate both 3-transmembrane (TM3) and TM4 receptors

SMILES: ClC(Cl)Cl [Chloroform]
- EC50 [1]: 1300 µM

SMILES: CCCCCCCCCCCO [undecanol]
- ion channel modulation, TM3 versus TM4 receptors (FIG. 2) [2]: modulate 4-transmembrane receptors (TM4) or neither receptor type

SMILES: FC1C(F)(F)C(F)(F)OC1(F)C(F)(F)F (centres unmarked) [2,2,3,3,4,5-hexafluorotetrahydro-5-(trifluoromethyl)-furan]
- concentration causing loss of righting reflex [3]: 1-10%

SMILES: CCOCC [Diethyl ether]
- EC50 [1]: 25000 µM
- ion channel modulation, TM3 versus TM4 receptors (FIG. 2) [2]: modulate both 3-transmembrane (TM3) and TM4 receptors

SMILES: C[C@]12N[C@H](Cc3ccccc31)c1ccccc12 [dizocilpine]
- ion channel modulation, TM3 versus TM4 receptors (FIG. 2) [2]: modulate both 3-transmembrane (TM3) and TM4 receptors

SMILES: FC(F)OC(F)C(F)(F)F (centres unmarked) [desflurane]
- ion channel modulation, TM3 versus TM4 receptors (FIG. 2) [2]: modulate both 3-transmembrane (TM3) and TM4 receptors

SMILES: FC1(F)OC(F)(F)C(F)(F)C(F)(F)C1(F)F [Perfluorotetrahydropyran]
- concentration causing loss of righting reflex [3]: 1-10%

SMILES: Cc1ncc2n1-c1ccc(Cl)cc1C(c1ccccc1F)=NC2 [midazolam]
- ion channel modulation, TM3 versus TM4 receptors (FIG. 2) [2]: modulate 4-transmembrane receptors (TM4) or neither receptor type

SMILES: FCOC(C(F)(F)F)C(F)(F)F [sevoflurane]
- ion channel modulation, TM3 versus TM4 receptors (FIG. 2) [2]: modulate both 3-transmembrane (TM3) and TM4 receptors

SMILES: CN1C(=O)CN=C(c2ccccc2)c2cc(Cl)ccc21 [diazepam]
- ion channel modulation, TM3 versus TM4 receptors (FIG. 2) [2]: modulate 4-transmembrane receptors (TM4) or neither receptor type

SMILES: C1CC1 [cyclopropane]
- ion channel modulation, TM3 versus TM4 receptors (FIG. 2) [2]: modulate both 3-transmembrane (TM3) and TM4 receptors

SMILES: COC(F)(F)C(Cl)Cl [Methoxyflurane]
- EC50 [1]: 210 µM
- ion channel modulation, TM3 versus TM4 receptors (FIG. 2) [2]: modulate both 3-transmembrane (TM3) and TM4 receptors

SMILES: [N-]=[N+]=O [nitrous oxide]
- ion channel modulation, TM3 versus TM4 receptors (FIG. 2) [2]: modulate both 3-transmembrane (TM3) and TM4 receptors

SMILES: Cc1cccc([C@H](C)c2cnc[nH]2)c1C [Dexmedetomidine]
- EC50 [1]: 7 µM

SMILES: FC(F)OC(Cl)C(F)(F)F (centres unmarked) [Isoflurane]
- EC50 [1]: 290 µM
- ion channel modulation, TM3 versus TM4 receptors (FIG. 2) [2]: modulate both 3-transmembrane (TM3) and TM4 receptors
